Test results published in patent publication US7435837B2, “Dihydrobenzofuranyl alkanamine derivatives and methods for using same” (Wyeth, priority 2003, dated 2008).

These molecules were tested against T1, human 5-hydroxytryptamine-2C (h5-HT2C) receptor (Homo sapiens, UniProt P28335) (assay: [125I]DOI binding to membranes of CHO cells expressing the human 5-HT2C receptor). Conditions: [125I]DOI radioligand, CHO cell membranes, room temperature 60 min; read-out: 5-HT2C Affinity Ki.
T1 construct: expressed in transfected cells; host or cells: CHO (Chinese Hamster Ovary) cells; membranes
T1 sequence (P28335 33-458): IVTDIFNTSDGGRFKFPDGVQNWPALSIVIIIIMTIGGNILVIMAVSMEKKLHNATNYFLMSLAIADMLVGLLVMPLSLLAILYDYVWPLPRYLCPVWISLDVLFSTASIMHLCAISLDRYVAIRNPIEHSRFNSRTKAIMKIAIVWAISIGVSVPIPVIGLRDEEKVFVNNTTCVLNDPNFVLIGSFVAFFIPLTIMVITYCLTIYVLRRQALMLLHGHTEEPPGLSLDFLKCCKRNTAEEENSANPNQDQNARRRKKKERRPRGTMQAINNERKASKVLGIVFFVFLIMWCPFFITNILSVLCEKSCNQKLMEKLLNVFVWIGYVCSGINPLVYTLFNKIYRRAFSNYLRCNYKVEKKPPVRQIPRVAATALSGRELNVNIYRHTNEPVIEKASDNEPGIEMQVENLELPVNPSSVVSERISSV

SMILES | Ki
NCC1Cc2cc(-c3ccccc3C(F)(F)F)cc(F)c2O1 (racemic) [Example 378, (±)-({7-fluoro-5-[2-(trifluoromethyl)phenyl]-2,3-dihydro-1-benzofuran-2-yl}methyl)amine] | 201 nM
Cc1ccc(-c2cc(C(F)(F)F)cc3c2OC(CN)C3)cc1 (racemic) [Example 323, (±)-{[5-(trifluoromethyl)-7-(4-methylphenyl)-2,3-dihydro-1-benzofuran-2-yl]methyl}amine] | 161 nM
NCC1Cc2cc(-c3cccc(C(F)(F)F)c3)cc(F)c2O1 (racemic) [Example 383, (±)-({7-fluoro-5-[3-(trifluoromethyl)phenyl]-2,3-dihydro-1-benzofuran-2-yl}methyl)amine] | 1760 nM
CNCC1Cc2cc(C(F)(F)F)cc(-c3ccc(F)c(F)c3)c2O1 (racemic) [Example 522, (±)-N-methyl-1-[7-(3,4-difluorophenyl)-5-(trifluoromethyl)-2,3-dihydro-1-benzofuran-2-yl]methanamine] | 474 nM
CNCC1Cc2cc(-c3ccccc3)cc(-c3ccc(F)cc3F)c2O1 (racemic) [Example 517, (±)-{[7-(2,4-difluorophenyl)-5-phenyl-2,3-dihydro-1-benzofuran-2-yl]methyl}methylamine] | 2140 nM
Cc1cccc(-c2cc(F)c3c(c2)CC(CN)O3)c1 (racemic) [Example 380, (±)-{[7-fluoro-5-(3-methylphenyl)-2,3-dihydro-1-benzofuran-2-yl]methyl}amine] | 424 nM
NCC1Cc2cccc(-c3ccc4ccccc4c3)c2O1 (racemic) [Example 39, (±)-1-[7-(2-naphthyl)-2,3-dihydro-1-benzofuran-2-yl]methanamine] | 43 nM
CC(C)(C)/C=C/c1cccc2c1OC(CN)C2 (racemic) [Example 117, (±)-1-{7-[(1E)-3,3-dimethylbut-1-enyl]-2,3-dihydro-1-benzofuran-2-yl}methanamine] | 263 nM
NCC1Cc2cc(-c3ccccc3F)cc(F)c2O1 (racemic) [Example 377, (±)-{[7-fluoro-5-(2-fluorophenyl)-2,3-dihydro-1-benzofuran-2-yl]methyl}amine] | 194 nM
NCC1Cc2cccc(-c3cc(C(F)(F)F)cc(C(F)(F)F)c3)c2O1 (racemic) [Example 32, (±)-1-{7-[3,5-bis(trifluoromethyl)phenyl]-2,3-dihydro-1-benzofuran-2-yl}methanamine] | 419 nM
CNCC1Cc2cc(-c3ccc(OC)cc3)cc(F)c2O1 (racemic) [Example 542, (±)-{7-fluoro-5-[4-methoxyphenyl]-2,3-dihydro-1-benzofuran-2-yl}methyl)methylamine] | 372 nM
CC1(CN)Cc2cc(Cl)cc(-c3cccs3)c2O1 (racemic) [Example 114, (±)-(5-chloro-2-methyl-7-thien-2-yl-2,3-dihydro-1-benzofuran-2-yl)methylamine] | 471 nM
CCc1cc2c(c(-c3ccccc3C)c1)OC(CN)C2 (racemic) [Example 305, (±)-{[5-ethyl-7-(2-methylphenyl)-2,3-dihydro-1-benzofuran-2-yl]methyl}amine] | 1.1 nM
N#Cc1ccc(-c2cc(C(F)(F)F)cc3c2OC(CN)C3)cc1 (racemic) [Example 340, (±)-4-[2-(aminomethyl)-5-(trifluoromethyl)-2,3-dihydro-1-benzofuran-7-yl]benzonitrile] | 88 nM
NCC1Cc2cccc(Nc3cccc(F)c3)c2O1 (racemic) [Example 183, (±)-N-[2-(aminomethyl)-2,3-dihydro-1-benzofuran-7-yl]-N-(3-fluorophenyl)amine] | 178 nM
NCC1Cc2cc(Cl)cc(-c3ccc(F)c(Cl)c3)c2O1 (racemic) [Example 259, (±)-{[5-chloro-7-(3-chloro-4-fluorophenyl)-2,3-dihydro-1-benzofuran-2-yl]methyl}amine] | 69 nM
CNCC1Cc2cc(-c3cccc(F)c3)cc(F)c2O1 (racemic) [Example 535, (±)-{[7-fluoro-5-(3-fluorophenyl)-2,3-dihydro-1-benzofuran-2-yl]methyl}methylamine] | 1090 nM
Cc1ccc(-c2cc(F)c3c(c2)CC(CN)O3)cc1 (racemic) [Example 385, (±)-{[7-fluoro-5-(4-methylphenyl)-2,3-dihydro-1-benzofuran-2-yl]methyl}amine] | 1350 nM
COc1cccc(-c2cccc3c2OC(CN)C3)c1 (single isomer, unassigned; (-)) [Example 134, (−)-1-[7-(3-methoxyphenyl)-2,3-dihydro-1-benzofuran-2-yl]methanamine] | 483 nM
CNCC1Cc2cc(-c3ccccc3F)cc(F)c2O1 (racemic) [Example 530, (±)-{[7-fluoro-5-(2-fluorophenyl)-2,3-dihydro-1-benzofuran-2-yl]methyl}methylamine] | 915 nM

SMILES | Ki
NCC1Cc2cccc(-c3ccsc3)c2O1 (single isomer, unassigned; (-)) [Example 46, (−)-1-(7-thien-3-yl-2,3-dihydro-1-benzofuran-2-yl)methanamine] | 54 nM
CNCC1Cc2cc(-c3ccc(F)cc3)cc(F)c2O1 (racemic) [Example 540, (±)-{[7-fluoro-5-(4-fluorophenyl)-2,3-dihydro-1-benzofuran-2-yl]methyl}methylamine] | 486 nM
Cc1ccc(Nc2cccc3c2OC(CN)C3)cc1Cl (racemic) [Example 188, (±)-N-[2-(aminomethyl)-2,3-dihydro-1-benzofuran-7-yl]-N-(3-chloro-4-methylphenyl)amine] | 579 nM
NCC1Cc2cc(C(F)(F)F)cc(-c3ccccc3C(F)(F)F)c2O1 (racemic) [Example 317, (±)-{[5-(trifluoromethyl)-7-(2-(trifluoromethyl)phenyl)-2,3-dihydro-1-benzofuran-2-yl]methyl}amine] | 84 nM
Cc1ccc(Cl)cc1-c1cc(F)cc2c1O[C@@H](CN)C2 [Example 548, {[(2R)-7-(5-chloro-2-methylphenyl)-5-fluoro-2,3-dihydro-1-benzofuran-2-yl]methyl}amine] | 2.3 nM
Cc1cccc(-c2cc(C(F)(F)F)cc3c2OC(CN)C3)c1 (racemic) [Example 318, (±)-{[5-(trifluoromethyl)-7-(3-methylphenyl)-2,3-dihydro-1-benzofuran-2-yl]methyl}amine] | 98 nM
NCCC1Cc2ccc(Cl)c(-c3ccccc3Cl)c2O1 (racemic) [Example 552, (±)-{2-[6-chloro-7-(2-chlorophenyl)-2,3-dihydro-1 benzofuran-2-yl]ethyl}amine] | 0.3 nM
NCC1Cc2cc(-c3ccccc3)cc(-c3ccc(F)cc3)c2O1 (racemic) [Example 350, (±)-{[7-(4-fluorophenyl)-5-phenyl-2,3-dihydro-1-benzofuran-2-yl]methyl}amine] | 497 nM
COc1cccc(-c2cc(F)c3c(c2)CC(CN)O3)c1 (racemic) [Example 384, (±)-{[7-fluoro-5-(3-methoxyphenyl)-2,3-dihydro-1-benzofuran-2-yl]methyl}amine] | 1260 nM
NCC1Cc2cc(C(F)(F)F)cc(-c3cccc(Cl)c3)c2O1 (racemic) [Example 320, (±)-{[5-(trifluoromethyl)-7-(3-chlorophenyl)-2,3-dihydro-1-benzofuran-2-yl]methyl}amine] | 107 nM
CNCC1Cc2cc(Cl)cc(C3CCCCC3)c2O1 (racemic) [Example 12, (±)-N-[(5-chloro-7-cyclohexyl-2,3-dihydro-1-benzofuran-2-yl)methyl]-N-methylamine] | 127 nM
CNCC1Cc2cc(Cl)cc(-c3ccsc3)c2O1 (single isomer, unassigned; (-)) [Example 94, (−)-N-[(5-chloro-7-thien-3-yl-2,3-dihydro-1-benzofuran-2-yl)methyl]-N-methylamine] | 176 nM
Cc1cccc(-c2cc(-c3ccccc3)cc3c2OC(CN)C3)c1 (racemic) [Example 352, (±)-{[7-(3-methylphenyl)-5-phenyl-2,3-dihydro-1-benzofuran-2-yl]methyl}amine] | 876 nM
NCC1Cc2cccc(Nc3cccc(C(F)(F)F)c3)c2O1 (racemic) [Example 184, (±)-N-2-(aminomethyl)-N-[3-(trifluoromethyl)phenyl]-2,3-dihydro-1-benzofuran-7-amine] | 185 nM
CNCC1Cc2cc(C(F)(F)F)cc(-c3cccc(Cl)c3Cl)c2O1 (racemic) [Example 524, (±)-N-methyl-1-[7-(2,3-dichlorophenyl)-5-(trifluoromethyl)-2,3-dihydro-1-benzofuran-2-yl]methanamine] | 136 nM
NCC1Cc2cc(C(F)(F)F)cc(-c3cccc(C(F)(F)F)c3)c2O1 (racemic) [Example 322, (±)-{[5-(trifluoromethyl)-7-(3-(trifluoromethyl)phenyl)-2,3-dihydro-1-benzofuran-2-yl]methyl}amine] | 427 nM
NCC1Cc2cc(C(F)(F)F)cc(-c3ccc(F)c(F)c3)c2O1 (racemic) [Example 334, (±)-{[7-(3,4-difluorophenyl)-5-(trifluoromethyl)-2,3-dihydro-1-benzofuran-2-yl]methyl}amine] | 324 nM
NCC1Cc2cccc(Nc3ccc(F)c(Cl)c3)c2O1 (racemic) [Example 193, (±)-N-[2-(aminomethyl)-2,3-dihydro-1-benzofuran-7-yl]-N-(3-chloro-4-fluorophenyl)amine] | 246 nM
Cc1cccc(Nc2cccc3c2OC(CN)C3)c1 (racemic) [Example 182, (±)-N-[2-(aminomethyl)-2,3-dihydro-1-benzofuran-7-yl]-N-(3-methylphenyl)amine] | 279 nM
